From ChEMBL document CHEMBL4351025, “Indole-nitroimidazole conjugates as efficient manipulators to decrease the genes expression of methicillin-resistant Staphylococcus aureus” (Eur J Med Chem, 2019)
Converted amounts (≈) assume the structure as drawn.

Assays:
Assay type in all cases: functional
Staphylococcus aureus [1] = experiment: Antibacterial activity against methicillin-resistant Staphylococcus aureus N315 incubated for 24 hrs by two fold serial dilution method; settings: N315, 24 h
Pseudomonas aeruginosa = experiment: Antibacterial activity against Pseudomonas aeruginosa incubated for 24 hrs by two fold serial dilution method
Acinetobacter baumannii [2] = experiment: Antibacterial activity against Acinetobacter baumannii incubated for 24 hrs by two fold serial dilution method
Staphylococcus aureus [3] = experiment: Antibacterial activity against Staphylococcus aureus ATCC 29213 incubated for 24 hrs by two fold serial dilution method; settings: ATCC 29213, 24 h
Escherichia coli = experiment: Antibacterial activity against Escherichia coli incubated for 24 hrs by two fold serial dilution method
Klebsiella pneumoniae [4] = experiment: Antibacterial activity against Klebsiella pneumoniae incubated for 24 hrs by two fold serial dilution method
Enterococcus faecalis = experiment: Antibacterial activity against Enterococcus faecalis incubated for 24 hrs by two fold serial dilution method
Acinetobacter baumannii [5] = experiment: Potency index, ratio of MIC for norfloxacin to test compound MIC for antibacterial activity against Acinetobacter baumannii
Klebsiella pneumoniae [6] = experiment: Potency index, ratio of MIC for clinafloxacin to test compound MIC for antibacterial activity against Klebsiella pneumoniae

## CC(=O)/C(=C/c1cn(CC(=O)N2CCN(Cc3ccc(Cl)cc3Cl)CC2)c2ccccc12)n1cc([N+](=O)[O-])nc1C
Staphylococcus aureus [1]
  MIC: 64 µg/mL (≈ 107 µM)
Pseudomonas aeruginosa
  MIC: 256 µg/mL (≈ 430 µM)
Acinetobacter baumannii [2]
  MIC: 256 µg/mL (≈ 430 µM)
Staphylococcus aureus [3]
  MIC: 256 µg/mL (≈ 430 µM)
Escherichia coli
  MIC: 512 µg/mL (≈ 860 µM)
Klebsiella pneumoniae [4]
  MIC: 128 µg/mL (≈ 215 µM)
Enterococcus faecalis
  MIC: 128 µg/mL (≈ 215 µM)

## CC(=O)/C(=C/c1cn(CC(=O)N2CCOCC2)c2ccccc12)n1cc([N+](=O)[O-])nc1C
Staphylococcus aureus [1]
  MIC: 2 µg/mL (≈ 4.57 µM)
Pseudomonas aeruginosa
  MIC: 128 µg/mL (≈ 293 µM)
Acinetobacter baumannii [2]
  MIC: 256 µg/mL (≈ 585 µM)
Staphylococcus aureus [3]
  MIC: 64 µg/mL (≈ 146 µM)
Escherichia coli
  MIC: 32 µg/mL (≈ 73.2 µM)
Klebsiella pneumoniae [4]
  MIC: 16 µg/mL (≈ 36.6 µM)
Enterococcus faecalis
  MIC: 32 µg/mL (≈ 73.2 µM)

## CC(=O)/C(=C/c1cn(CC(=O)N(C(C)C)C(C)C)c2ccccc12)n1cc([N+](=O)[O-])nc1C
Staphylococcus aureus [1]
  MIC: 1 µg/mL (≈ 2.21 µM)
Pseudomonas aeruginosa
  MIC: 512 µg/mL (≈ 1130 µM)
Acinetobacter baumannii [2]
  MIC: 512 µg/mL (≈ 1130 µM)
Staphylococcus aureus [3]
  MIC: 512 µg/mL (≈ 1130 µM)
Escherichia coli
  MIC: 64 µg/mL (≈ 142 µM)
Klebsiella pneumoniae [4]
  MIC: 16 µg/mL (≈ 35.4 µM)
Enterococcus faecalis
  MIC: 64 µg/mL (≈ 142 µM)

## CC(=O)/C(=C/c1cn(CC(=O)N(C)c2ccccc2)c2ccccc12)n1cc([N+](=O)[O-])nc1C
Staphylococcus aureus [1]
  MIC: 1 µg/mL (≈ 2.19 µM)
Pseudomonas aeruginosa
  MIC: 128 µg/mL (≈ 280 µM)
Acinetobacter baumannii [2]
  MIC: 128 µg/mL (≈ 280 µM)
Staphylococcus aureus [3]
  MIC: 128 µg/mL (≈ 280 µM)
Escherichia coli
  MIC: 32 µg/mL (≈ 69.9 µM)
Klebsiella pneumoniae [4]
  MIC: 32 µg/mL (≈ 69.9 µM)
Enterococcus faecalis
  MIC: 64 µg/mL (≈ 140 µM)

## CCN(CC)C(=O)Cn1cc(/C=C(/C(C)=O)n2cc([N+](=O)[O-])nc2C)c2ccc(Cl)cc21
Staphylococcus aureus [1]
  MIC: 512 µg/mL (≈ 1120 µM)
Pseudomonas aeruginosa
  MIC: 128 µg/mL (≈ 280 µM)
Acinetobacter baumannii [2]
  MIC: 512 µg/mL (≈ 1120 µM)
Staphylococcus aureus [3]
  MIC: 512 µg/mL (≈ 1120 µM)
Escherichia coli
  MIC: 512 µg/mL (≈ 1120 µM)
Klebsiella pneumoniae [4]
  MIC: 512 µg/mL (≈ 1120 µM)
Enterococcus faecalis
  MIC: 1 µg/mL (≈ 2.18 µM)

## C#CCn1cc(/C=C(/C(C)=O)n2cc([N+](=O)[O-])nc2C)c2ccccc21
Staphylococcus aureus [1]
  MIC: 2 µg/mL (≈ 5.74 µM)
Pseudomonas aeruginosa
  MIC: 128 µg/mL (≈ 367 µM)
Acinetobacter baumannii [2]
  MIC: 128 µg/mL (≈ 367 µM)
Staphylococcus aureus [3]
  MIC: 128 µg/mL (≈ 367 µM)
Escherichia coli
  MIC: 512 µg/mL (≈ 1470 µM)
Klebsiella pneumoniae [4]
  MIC: 128 µg/mL (≈ 367 µM)
Enterococcus faecalis
  MIC: 32 µg/mL (≈ 91.9 µM)

## CC(=O)/C(=C/c1cn(CC(=O)N2CCCCC2)c2cc(C)ccc12)n1cc([N+](=O)[O-])nc1C
Staphylococcus aureus [1]
  MIC: 1 µg/mL (≈ 2.22 µM)
Pseudomonas aeruginosa
  MIC: 32 µg/mL (≈ 71.2 µM)
Acinetobacter baumannii [2]
  MIC: 256 µg/mL (≈ 570 µM)
Staphylococcus aureus [3]
  MIC: 16 µg/mL (≈ 35.6 µM)
Escherichia coli
  MIC: 256 µg/mL (≈ 570 µM)
Klebsiella pneumoniae [4]
  MIC: 32 µg/mL (≈ 71.2 µM)
Enterococcus faecalis
  MIC: 128 µg/mL (≈ 285 µM)

## CC(=O)/C(=C/c1cn(CC(=O)N2CCN(Cc3ccc(F)cc3)CC2)c2cc(Cl)ccc12)n1cc([N+](=O)[O-])nc1C
Staphylococcus aureus [1]
  MIC: 512 µg/mL (≈ 884 µM)
Pseudomonas aeruginosa
  MIC: 128 µg/mL (≈ 221 µM)
Acinetobacter baumannii [2]
  MIC: 512 µg/mL (≈ 884 µM)
Staphylococcus aureus [3]
  MIC: 512 µg/mL (≈ 884 µM)
Escherichia coli
  MIC: 512 µg/mL (≈ 884 µM)
Klebsiella pneumoniae [4]
  MIC: 512 µg/mL (≈ 884 µM)
Enterococcus faecalis
  MIC: 2 µg/mL (≈ 3.45 µM)

## CCn1cc(C(=O)O)c(=O)c2cc(F)c(N3CCNCC3)cc21 [NORFLOXACIN]
Staphylococcus aureus [1]
  MIC: 8 µg/mL (≈ 25.1 µM)
Pseudomonas aeruginosa
  MIC: 2 µg/mL (≈ 6.26 µM)
Acinetobacter baumannii [2]
  MIC: 8 µg/mL (≈ 25.1 µM)
Staphylococcus aureus [3]
  MIC: 2 µg/mL (≈ 6.26 µM)
Escherichia coli
  MIC: 16 µg/mL (≈ 50.1 µM)
Klebsiella pneumoniae [4]
  MIC: 4 µg/mL (≈ 12.5 µM)
Enterococcus faecalis
  MIC: 4 µg/mL (≈ 12.5 µM)

## CCN(CC)C(=O)Cn1cc(/C=C(/C(C)=O)n2cc([N+](=O)[O-])nc2C)c2ccc(C)cc21
Staphylococcus aureus [1]
  MIC: 4 µg/mL (≈ 9.14 µM)
Pseudomonas aeruginosa
  MIC: 128 µg/mL (≈ 293 µM)
Acinetobacter baumannii [2]
  MIC: 512 µg/mL (≈ 1170 µM)
Staphylococcus aureus [3]
  MIC: 16 µg/mL (≈ 36.6 µM)
Escherichia coli
  MIC: 128 µg/mL (≈ 293 µM)
Klebsiella pneumoniae [4]
  MIC: 512 µg/mL (≈ 1170 µM)
Enterococcus faecalis
  MIC: 64 µg/mL (≈ 146 µM)

## CCN(CC)C(=O)Cn1cc(/C=C(/C(C)=O)n2cc([N+](=O)[O-])nc2C)c2ccccc21
Staphylococcus aureus [1]
  MIC: 16 µg/mL (≈ 37.8 µM)
Pseudomonas aeruginosa
  MIC: 16 µg/mL (≈ 37.8 µM)
Acinetobacter baumannii [2]
  MIC: 1 µg/mL (≈ 2.36 µM)
Staphylococcus aureus [3]
  MIC: 128 µg/mL (≈ 302 µM)
Escherichia coli
  MIC: 16 µg/mL (≈ 37.8 µM)
Acinetobacter baumannii [5]
  Ratio: 8
Klebsiella pneumoniae [4]
  MIC: 8 µg/mL (≈ 18.9 µM)
Enterococcus faecalis
  MIC: 64 µg/mL (≈ 151 µM)
Klebsiella pneumoniae [6]
  Ratio: 4
